Experiments:
[1] = human, in vivo, iv; cited from earlier work

SMILES	patients experiencing bone marrow toxicity resulting in neutropenia [1]	in vivo release behaviour (fluorescence in urine)
Nc1nc(O)c2ncn(COC(CO)CO)c2n1 [Ganciclovir]	30-50%	
O=C([O-])c1ccccc1-c1c2ccc(=O)cc-2oc2cc([O-])ccc12.[Na+].[Na+] [sodium fluorescein, Sodium fluorescein]		long-term constant release

— US11103460B2 (priority 2017, dated 2021)
